From patent publication US7897340B2, “Use of tumor susceptibilty gene 101 (TSG 101) as a prognostic and diagnostic marker” (The Board of Regents of the University of Texas System, priority 2006, dated 2011)
“Also recorded” adds a separate entry of the source.

Tests used:
[1] = tested on: SKOV-3 cells; experiment: Cell growth by counting; type: cell-based, human
Description: FIGS. 11A-F show association of suppression of TSG101 expression with cell cycle arrest and growth inhibition. In FIG. 11A, SKOV-3 cells were transfected with TSG101 and control siRNAs and RNA and protein were isolated 48 hours post transfection. Levels of mRNA were determined by semiquantitative RT-PCR and protein levels were determined by immunoblotting, respectively. Similar results were obtained from more than 4 independent experiments. In FIG. 11B, TSG101 or control siRNA transfected cells were plated at 2.5×10^4 cells/well in 6 well plates and cell growth was determined by counting over successive days. Each data point represents the average of 3 wells. Control and TSG101 knockdown SKOV-3 cells were stained with propidium iodide and analyzed by FACS on day 4 (FIG. 11C) or day 6 (FIG. 11D) following transfection. Sub G1 cells are calculated as a supplemental population. In FIG. 11E, SKOV-3 cell lysates were obtained 6 days following transfection with control or TSG101 siRNA. Caspase activity was determined using the fluorogenic substrate DEVD-AFC. In FIG. 11F, control and TSG101 knockdown SKOV-3 cells on day 5 following siRNA transfection were stained using Hoechst 22658 and Nuclear condensation was observed on a fluorescent microscope. Cells with condensed/fragmented DNA were quantified from at least 8 images, and represented as a percentage of the total number of cells. […]

[2] = tested on: CITED2 mRNA; experiment: CITED2 mRNA by RT-PCR in SKOV-3 cells; type: cell-based, human; conditions: SKOV-3, 3 days following siRNA transfection
Description: Total RNA was isolated from cells using Trizol reagent (Invitrogen), and concentration was determined by absorbance at 260 nm. Real-Time PCR analysis was carried out using fluorescent TSG101 primers on an Applied Biosystems Prism 7000 Sequence Detection System. RT-PCR was carried out for TSG101 and HIF-1α using 1 μg of isolated total RNA under the following parameters: 94° C. 1 min, 57° C. 1 min and 72° C. 1.5 min, 35 cycles. Primers used for RT-PCR were TSG10 forward 5′-[…]-3′ (SEQ ID NO: 1), reverse 5′-TTTCCTCC TTCATCCGCCATCTC-3′ (SEQ ID NO: 2), CITED2 forward 5′-[…]-3′ (SEQ ID NO: 3), reverse 5′-[…]-3′ (SEQ ID NO: 4), HIF-1a ? forward 5′-[…]-3′ (SEQ ID NO: 5), reverse 5′-[…]-3′ (SEQ ID NO: 6).
(§1) A siRNA duplex specific for TSG101 (targeting TSG101 coding sequence 413-433) and a scrambled random control siRNA with matching GC content were obtained from Dharmacon. This specific TSG101 siRNA duplex (sense: CCUCCAGUCUUCUCUCGUCdTdT (SEQ ID NO: 7) and antisense: dTd[…] (SEQ ID NO: 8) have been successfully applied to suppress the expression of endogenous TSG101 in several high quality studies (Amit et al., 2004; Garrus et al., 2001; Hewitt et al., 2002; Ismaili et al., 2005). Transfection of the siRNAs was according to the manufacturer's instructions using Lipofectamine 2000 (Invitrogen).

[3] = tested on: SKOV-3 cells; experiment: In vivo tumor formation assay in nude mice; design: species or system Balb/c athymic nude mice; conditions: siRNA-transfected SKOV-3 cells injected s.c. into flanks of nude mice, four mice, vs control siRNA cells
Description: SKOV-3 cells were trypsinized 3 days following transfection with either Control or TSG101 siRNA, and subsequently washed and resuspended in phosphate-buffered saline at 5×10^6 cells/ml. 200 μl (1×10^6 cells) of control or TSG101 transfected SKOV-3 cells were injected s.c. into the right and left flanks (respectively) of 4-6 week old Balb/c athymic nude mice (Jackson Laboratory, Bar Harbor, Me.). Mice were examined every 5 days until visible tumors appeared. Subsequently, tumor volume measurements were taken every 3-5 days, and mice were sacrificed 6 weeks after initial injections, and a final measurement of tumor volume was taken.
Further, in vivo tumor formation assay in nude mice was performed to determine if TSG101 knockdown affected the tumorigenicity of SKOV-3 cells. Seventy-two hours post transfection, SKOV-3 cells transfected either with TSG101 or control siRNA duplex were pair-wise injected subcutaneously into the left or right flanks, respectively, of the same BALB/c athymic nude mouse. Tumor growth was monitored for 6 weeks, at which time the tumors were harvested and tumor volume was measured. […] Due to the transient nature of the siRNA duplex, the actual effect of TSG101 gene silencing should be more prominent.

[4] = tested on: CITED2; experiment: CITED2 protein by immunoblotting in SKOV-3 cells; type: cell-based, human; conditions: SKOV-3, immunoblotting
Excerpt: Antigen-antibody complexes were detected by enhanced chemiluminescence (Pierce).
as §1

[5] = tested on: p21 mRNA; experiment: p21 mRNA by RT-PCR in SKOV-3 cells; type: cell-based, human; conditions: SKOV-3, after 4 days following siRNA transfection
Description: Total RNA was isolated from cells using Trizol reagent (Invitrogen), and concentration was determined by absorbance at 260 nm. Semiquantitative RT-PCR was carried out using 1 μg of isolated total RNA. Primers used for RT-PCR were TSG101 forward 5′-[…]-3′ (SEQ ID NO: 1), reverse 5′-[…]-3′ (SEQ ID NO:2), p21 forward 5′-[…]-3′ (SEQ ID NO: 9), reverse 5′-CCGTTTTCGACCCTGAGAG-3′ (SEQ ID NO:10).

[6] = tested on: SKOV-3 cells; experiment: Nuclear DNA condensation staining (Hoechst); type: cell-based, human; conditions: SKOV-3, day 5 following siRNA transfection
Description: 2-3×10^5 SKOV-3 cells were plated in 3 cm tissue culture plates containing polylysine coated coverslips, and transfected with either control or TSG101 siRNA. Cells on coverslips were stained 5 days post-transfection with Hoechst 22658 for 30 min, rinsed with PBS, and sealed onto glass slides. Nuclear DNA condensation was examined using a fluorescence microscope (Olympus BX51) equipped with a Hamamatsu digital camera (C4742-95).

TSG101 siRNA: siRNA duplex from Dharmacon targeting TSG101 coding sequence 413-433, SEQ ID NO: 7 and 8 (chain 1 CCUCCAGUCUUCUCUCGUCTT; chain 2 TTGGAGGUCAGAAGAGAGCAG; chemistry not fully specified; one strand is listed 3' to 5')
cell number (cell growth) ([1]; SKOV-3, counting over successive days, vs scrambled control siRNA): decrease dramatically in number beginning 5 days post transfection
rate of cell growth, initial observations ([1]; SKOV-3, up to 72 h posttransfection): no significant cellular effects on cell growth
CITED2 mRNA expression [2]: significantly down-regulated
tumor volume [3]: significantly smaller; also recorded: reduced tumor growth
cellular levels of CITED2 protein [4]: significantly reduced
p21 messenger RNA level [5]: significantly upregulated
nuclear DNA condensation/fragmentation [6]: apparent increases
